Laboratory results from the Kinase Knowledgebase extract (Sharma et al. 2016).

Biological target: EGFR (UniProt P00533)
Assay: Inhibition of EGFR Kinase Activity

EGFR, sequence (P00533 whole entry, looked up): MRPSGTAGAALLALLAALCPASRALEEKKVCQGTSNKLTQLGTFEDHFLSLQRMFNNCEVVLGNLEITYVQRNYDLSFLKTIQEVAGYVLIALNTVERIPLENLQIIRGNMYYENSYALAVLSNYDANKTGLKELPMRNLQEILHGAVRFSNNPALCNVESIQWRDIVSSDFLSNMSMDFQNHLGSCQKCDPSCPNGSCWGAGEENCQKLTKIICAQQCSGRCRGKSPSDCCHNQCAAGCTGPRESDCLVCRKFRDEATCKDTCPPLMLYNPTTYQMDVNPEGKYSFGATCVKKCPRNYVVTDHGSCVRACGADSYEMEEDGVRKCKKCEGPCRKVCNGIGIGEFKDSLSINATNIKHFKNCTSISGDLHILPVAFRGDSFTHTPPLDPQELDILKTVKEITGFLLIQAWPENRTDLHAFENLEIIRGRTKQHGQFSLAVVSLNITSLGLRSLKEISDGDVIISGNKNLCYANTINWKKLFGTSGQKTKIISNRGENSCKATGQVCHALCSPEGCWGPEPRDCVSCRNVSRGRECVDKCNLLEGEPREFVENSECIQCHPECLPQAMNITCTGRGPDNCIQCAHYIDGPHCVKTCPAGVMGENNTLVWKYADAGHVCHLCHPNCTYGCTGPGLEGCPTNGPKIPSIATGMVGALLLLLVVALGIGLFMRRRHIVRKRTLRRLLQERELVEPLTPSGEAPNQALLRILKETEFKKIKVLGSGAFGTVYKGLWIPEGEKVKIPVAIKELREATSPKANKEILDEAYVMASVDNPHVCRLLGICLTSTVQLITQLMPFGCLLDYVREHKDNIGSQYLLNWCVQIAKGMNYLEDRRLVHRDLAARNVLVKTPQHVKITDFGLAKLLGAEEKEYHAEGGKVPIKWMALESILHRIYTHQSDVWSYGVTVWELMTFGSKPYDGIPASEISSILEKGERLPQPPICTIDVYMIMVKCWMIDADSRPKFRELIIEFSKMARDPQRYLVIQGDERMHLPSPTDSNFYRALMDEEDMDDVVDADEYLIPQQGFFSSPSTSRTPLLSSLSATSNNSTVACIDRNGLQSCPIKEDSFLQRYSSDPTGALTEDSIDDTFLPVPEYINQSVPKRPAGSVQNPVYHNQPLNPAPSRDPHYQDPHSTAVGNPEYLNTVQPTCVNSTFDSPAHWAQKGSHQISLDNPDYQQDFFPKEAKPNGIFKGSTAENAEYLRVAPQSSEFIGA

SMILES | IC50
C=CC(=O)Nc1ccc(Nc2ncnc(Nc3ccc(C(=O)OC)cc3)n2)cc1 | < 50 µM
C=CCN(c1cccc(C)c1)c1ncnc(Nc2cccc(NC(=O)C#CC)c2)n1 | < 50 µM
C=CCN(c1ccc(F)c(Cl)c1)c1ncnc(Nc2ccc(NC(=O)C=C)cc2)n1 | < 50 µM
C=CC(=O)Nc1cccc(Nc2ncnc(Nc3ccc(OCc4cccc(F)c4)cc3)n2)c1 | < 50 µM
C=CC(=O)n1ncc2ccc(Nc3ncnc(Nc4ccc5c(cnn5Cc5ccccc5)c4)n3)cc21 | < 50 µM
C=CC(=O)Nc1cc(Nc2ncnc(Nc3cccc(Cl)c3)n2)ccc1OCCCN1CCOCC1 | < 50 µM
C=CC(=O)Nc1ccc(Nc2ncnc(N(CC)c3ccc(OCCC)c(OCCC)c3)n2)cc1 | < 50 µM
C=CCN(c1ccc(OCCC)c(OCCC)c1)c1ncnc(Nc2ccc(NC(=O)C=C)cc2)n1 | < 50 µM
CC#CC(=O)Nc1cc(Nc2ncnc(Nc3ccc(OCc4ccccc4)c(Cl)c3)n2)ccc1OCCCC1CCN(C)CC1 | < 50 µM
CC#CC(=O)Nc1cc(Nc2ncnc(N(C)c3ccc4c(ccn4Cc4ccccc4)c3)n2)ccc1OCCCN1CCOCC1 | < 50 µM
C=CC(=O)Nc1cccc(Nc2ncnc(Nc3ccc(OC)c(OC)c3)n2)c1 | < 50 µM
CC#CC(=O)Nc1cc(Nc2ncnc(Nc3cccc(Cl)c3)n2)ccc1OCCCC1CCN(C)CC1 | < 50 µM
C=CC(=O)Nc1ccc(Nc2ncnc(Nc3ccc4c(cnn4Cc4ccccc4)c3)n2)cc1OC | < 50 µM
CC#CC(=O)Nc1cccc(Nc2ncnc(N(C)c3ccc(OC)c(OCCOC)c3)n2)c1 | < 50 µM
C=CCN(c1ncnc(Nc2ccc(NC(=O)C=C)cc2)n1)N1CNc2ccccc21 | < 50 µM
C=CC(=O)Nc1cccc(Nc2ncnc(Nc3cccc(C)c3)n2)c1 | < 50 µM
CC#CC(=O)Nc1cccc(Nc2ncnc(N(C)c3ccc(OCc4ccccc4)cc3)n2)c1 | < 50 µM
CC#CC(=O)Nc1cccc(Nc2ncnc(Nc3ccc(OCCC)c(OCCC)c3)n2)c1 | < 50 µM
CC#CC(=O)Nc1cccc(Nc2ncnc(N(CC)c3cccc(S(=O)(=O)c4ccc([N+](=O)[O-])cc4)c3)n2)c1 | < 50 µM
C=CC(=O)Nc1ccc(Nc2ncnc(N(C)c3cccc(C)c3)n2)cc1 | < 50 µM
C=CC(=O)Nc1ccc(Nc2ncnc(Nc3ccc(OCCO)cc3)n2)cc1 | < 50 µM
C=CC(=O)Nc1ccc(Nc2ncnc(N(C)c3ccc(F)c(Cl)c3)n2)cc1 | < 50 µM
C=CC(=O)Nc1cccc(Nc2ncnc(N(C)n3c(=O)n(C(=O)C(C)(C)C)c4ccccc43)n2)c1 | < 50 µM

SMILES | IC50
CC#CC(=O)Nc1cccc(Nc2ncnc(N(CC)c3ccc(OCCOC)c(OC)c3)n2)c1 | < 50 µM
C=CC(=O)Nc1ccc(Nc2ncnc(Nc3cc(Cl)cc4ccccc34)n2)cc1 | < 50 µM
C=CC(=O)Nc1ccc(Nc2ncnc(NN3CCCc4cc(Cl)ccc43)n2)cc1 | < 50 µM
CC#CC(=O)Nc1cc(Nc2ncnc(N(C)c3ccc(OCc4ccccc4)c(Cl)c3)n2)ccc1OCCCC1CCN(C)CC1 | < 50 µM
CC#CC(=O)Nc1cc(Nc2ncnc(Nc3ccc4c(ccn4Cc4ccccc4)c3)n2)ccc1OCCCC1CCN(C)CC1 | < 50 µM
C=CC(=O)n1ncc2cc(Nc3ncnc(Nc4ccc5c(cnn5Cc5ccccc5)c4)n3)ccc21 | < 50 µM
C=CC(=O)Nc1ccc(Nc2ncnc(N(C)c3ccc(C(=O)OC)cc3)n2)cc1 | < 50 µM
C=CC(=O)Nc1cc(Nc2ncnc(N(C)c3ccc(OCc4ccccc4)c(Cl)c3)n2)ccc1OCCCN1CCOCC1 | < 50 µM
C=CCN(c1ccc(C(=O)OC)cc1)c1ncnc(Nc2ccc(NC(=O)C=C)cc2)n1 | < 50 µM
C=CC(=O)N1CCc2cc(Nc3ncnc(Nc4ccc5c(cnn5Cc5ccccc5)c4)n3)ccc21 | < 50 µM
C=C/C=C/C(=O)Nc1cccc(Nc2ncnc(Nc3ccc4c(ccn4Cc4ccccc4)c3)n2)c1 | < 50 µM
C=CC(=O)Nc1cccc(Nc2ncnc(N(C)c3cccc(S(=O)(=O)c4ccc([N+](=O)[O-])cc4)c3)n2)c1 | < 50 µM
C=CC(=O)Nc1ccc(Nc2ncnc(N(CC)c3ccc(OC)c(OC)c3)n2)cc1 | < 50 µM
CC#CC(=O)Nc1cccc(Nc2ncnc(N(CC)n3c(=O)n(C(=O)C(C)(C)C)c4ccccc43)n2)c1 | < 50 µM
C=CC(=O)Nc1cccc(Nc2ncnc(N(CC)c3ccc(OC)c(OCCOC)c3)n2)c1 | < 50 µM
C=CCN(c1ncnc(Nc2cccc(NC(=O)C#CC)c2)n1)C1CC1c1ccc(Cl)cc1 (stereo not drawn) | < 50 µM
CC#CC(=O)Nc1cccc(Nc2ncnc(N(CC)c3ccc(F)c(Cl)c3)n2)c1 | < 50 µM
C=CCN(c1ncnc(Nc2cccc(NC(=O)C#CC)c2)n1)c1cc(Cl)ccc1C | < 50 µM
C=CC(=O)Nc1ccc(Nc2ncnc(N(C)c3ccc(OCCO)cc3)n2)cc1 | < 50 µM
C=CC(=O)Nc1cccc(Nc2ncnc(N(C)n3c(=O)[nH]c4ccccc43)n2)c1 | < 50 µM
CC#CC(=O)Nc1cccc(Nc2ncnc(Nc3ccc(OCC)c(OCC)c3)n2)c1 | < 50 µM
C=CC(=O)Nc1cc(Nc2ncnc(Nc3ccc4c(cnn4Cc4ccccc4)c3)n2)ccc1OCCCN1CCOCC1 | < 50 µM
CC#CC(=O)Nc1cccc(Nc2ncnc(N(C)C3CC3c3ccccc3)n2)c1 (stereo not drawn) | < 50 µM

SMILES | IC50
C=CC(=O)Nc1cc(Nc2ncnc(N(C)c3ccc4c(ccn4Cc4ccccc4)c3)n2)ccc1OCCCC1CCN(C)CC1 | < 50 µM
C=CC(=O)Nc1ccc(Nc2ncnc(N(CC)c3cccc(C(N)=O)c3)n2)cc1 | < 50 µM
C=CCN(c1ccc(F)c(Cl)c1)c1ncnc(Nc2cccc(NC(=O)C=C)c2)n1 | < 50 µM
C=CCN(c1ncnc(Nc2ccc(NC(=O)C=C)cc2)n1)c1cc(Cl)ccc1C | < 50 µM
C=CCN(c1ccc(OCCO)cc1)c1ncnc(Nc2cccc(NC(=O)C=C)c2)n1 | < 50 µM
C=CC(=O)N(OCCCC1CCN(C)CC1)c1cccc(Nc2ncnc(NN3CCCc4ccc(Cl)cc43)n2)c1 | < 50 µM
C#CCC(=O)Nc1cccc(Nc2ncnc(NN3CCCc4ccc(C(F)(F)F)cc43)n2)c1 | < 50 µM
C=CC(=O)Nc1cccc(Nc2ncnc(N(C)c3ccc(OCCOC)c(OC)c3)n2)c1 | < 50 µM
C=CC(=O)Nc1cccc(Nc2ncnc(N(C)c3ccc(OC)c(OC)c3)n2)c1 | < 50 µM
CC#CC(=O)Nc1cccc(Nc2ncnc(N(CC)c3cccc(C(N)=O)c3)n2)c1 | < 50 µM
C=CC(=O)Nc1cccc(Nc2ncnc(Nc3ccc(OCc4ccc(F)c(F)c4)c(F)c3)n2)c1 | < 50 µM
C=CC(=O)Nc1cccc(Nc2ncnc(Nc3ccc(OCc4cccc(F)c4)c(Cl)c3)n2)c1 | < 50 µM
CC#CC(=O)Nc1cccc(Nc2ncnc(Nc3cccc(Cl)c3)n2)c1 | < 50 µM
CC#CC(=O)Nc1cc(Nc2ncnc(Nc3ccc4c(cnn4Cc4ccccc4)c3)n2)ccc1OC | < 50 µM
C=CCN(c1ccc(OCc2ccccc2)cc1)c1ncnc(Nc2cccc(NC(=O)C=C)c2)n1 | < 50 µM
C=CCN(c1ncnc(Nc2ccc(NC(=O)C=C)cc2)n1)c1cc(Cl)cc2ccccc12 | < 50 µM
C=CC(=O)Nc1cccc(Nc2ncnc(Nc3ccc(OCc4ccccc4)cc3)n2)c1 | < 50 µM
C=CC(=O)Nc1cccc(Nc2ncnc(Nc3ccc4c(cnn4Cc4ccccc4)c3)n2)c1 | < 50 µM
C=CC(=O)Nc1ccc(Nc2ncnc(NN3CCCc4c(Cl)cccc43)n2)cc1 | < 50 µM
C=CC(=O)Nc1cccc(Nc2ncnc(N(CC)c3cccc4ccccc34)n2)c1 | < 50 µM
C=CC(=O)Nc1ccc(Nc2ncnc(NN3CCCc4ccc(C(F)(F)F)cc43)n2)cc1 | < 50 µM
CC#CC(=O)Nc1cccc(Nc2ncnc(N(C)c3ccc4c(ccn4Cc4ccccc4)c3)n2)c1 | < 50 µM
